The source of these data is patent US11479617B2, “Chelator-functionalized glycosaminoglycans” (priority 2018, dated 2022).

For `O.O.O.O.O.O.[Cl-].[Cl-].[Co+2]` [CoCl2.6H2O], the results for the maximal inhibitory concentration in the data set with NIH-3T3 fibroblasts and with RAW 264.7 macrophages were approximately 25 µg/mL and approximately 50 µg/mL, respectively.
In the case of hyaluronic acid [HA], the “cytocompatibility (cell enumeration, metabolism, toxicity)” value in the data set with NIH-3T3 fibroblasts and in the data set with RAW 264.7 macrophages was “cytocompatible” in each case.
